In DBAASP:
≈ marks a conversion by molar mass, not a printed value.

Columns and labels:
Assay in all cases: ≥ marks a high value that may be exact or a test limit, other limits are often not marked, values filed in µg/mL are converted to µM
[1] = system: Staphylococcus aureus ATCC 25923
[2] = system: Bacillus subtilis ATCC 23857
[3] = system: Klebsiella pneumoniae ATCC 700603
[4] = system: Pseudomonas aeruginosa ATCC 9027
[5] = system: Escherichia coli ATCC 25922
[6] = system: Bacillus cereus
[7] = system: Escherichia coli
[8] = system: Pseudomonas aeruginosa ATCC 27853
[9] = system: Enterococcus faecalis ATCC 29212
[10] = system: Staphylococcus epidermidis ATCC 12228
[11] = system: Acinetobacter baumannii ATCC 19606
[12] = system: Klebsiella pneumoniae
[13] = system: Salmonella enterica subsp. enterica serovar Typhimurium ATCC 14028
[14] = system: Salmonella typhimurium

SMILES | MIC [1] [µM] | MIC [2] [µM] | MIC [3] [µM] | MIC [5] [µM] | MIC [8] [µM] | MIC [9] [µM] | MIC [10] [µM] | MIC [11] [µM] | other results
CC[C@H](C)[C@H](NC(=O)[C@H](CCCCN)NC(=O)[C@H](CCCCN)NC(=O)[C@H](C)NC(=O)[C@@H](NC(=O)[C@H](C)NC(=O)[C@H](C)NC(=O)[C@H](CC(C)C)NC(=O)[C@H](CCCCN)NC(=O)[C@H](CCCCN)NC(=O)[C@H](CC(C)C)NC(=O)[C@H](CC(N)=O)NC(=O)[C@@H](N)CC(C)C)C(C)C)C(=O)N[C@@H](CC(C)C)C(N)=O [LNLKKLAAVAKKIL] | 32 (≈ 48.7 µg/mL) | 4 (≈ 6.09 µg/mL) | 32 (≈ 48.7 µg/mL) | 8 (≈ 12.2 µg/mL) | – | – | – | – | MIC [4]: 4 µM (≈ 6.09 µg/mL)
CC[C@H](C)[C@H](NC(=O)[C@H](CCSC)NC(=O)[C@H](CO)NC(=O)[C@H](Cc1ccccc1)NC(=O)[C@@H](NC(=O)[C@H](CO)NC(=O)[C@@H]1CCCN1C(=O)[C@@H](NC(=O)[C@@H](NC(=O)[C@H](CCCCN)NC(=O)[C@H](CO)NC(=O)[C@H](C)NC(=O)[C@H](CC(C)C)NC(=O)[C@H](CCCCN)NC(=O)CNC(=O)[C@@H](NC(=O)[C@@H](NC(=O)[C@@H]1CCCN1)C(C)C)[C@@H](C)CC)C(C)C)C(C)C)C(C)C)C(=O)N[C@@H](CCCCN)C(=O)N[C@@H](CCCN=C(N)N)C(=O)O [PVIGKLASKVVPSVFSMIKR] | – | – | – | – | – | – | – | – | MIC [6]: ≥ 119 µM; MIC [7]: > 119 µM
CC[C@H](C)[C@H](NC(=O)CN)C(=O)N[C@@H](CCCN=C(N)N)C(=O)N[C@@H](Cc1c[nH]c2ccccc12)C(=O)N[C@@H](CCCCN)C(=O)N[C@@H](Cc1ccccc1)C(=O)N[C@@H](Cc1c[nH]c2ccccc12)C(=O)N[C@@H](CCCCN)C(=O)N[C@@H](Cc1ccccc1)C(=O)N[C@H](C(N)=O)[C@@H](C)O [GIRWKFWKFT] | 32 (≈ 43.8 µg/mL) | ≥ 64 | 64 (≈ 87.5 µg/mL) | 32 (≈ 43.8 µg/mL) | 16 (≈ 21.9 µg/mL) | 128 (≈ 175 µg/mL) | 128 (≈ 175 µg/mL) | 128 (≈ 175 µg/mL) | –
CC[C@H](C)[C@H](NC(=O)[C@H](Cc1ccc(O)cc1)NC(=O)[C@@H](NC(=O)[C@H](CCCN=C(N)N)NC(=O)[C@H](CC(N)=O)NC(=O)[C@H](CC(N)=O)NC(=O)CN)C(C)C)C(=O)N1CCC[C@H]1C(=O)N[C@@H](CCC(N)=O)C(=O)N1CCC[C@H]1C(=O)N[C@@H](CCCN=C(N)N)C(=O)N1CCC[C@H]1C(=O)N[C@@H](Cc1cnc[nH]1)C(=O)N1CCC[C@H]1C(=O)N[C@@H](CCCN=C(N)N)C(=O)N[C@@H](CC(C)C)C(=O)O [GNNRVYIPQPRPHPRL] | – | – | – | > 128 | – | – | – | – | MIC [12]: > 128 µM; MIC [13]: > 128 µM
CC(C)[C@H](NC(=O)[C@H](Cc1ccccc1)NC(=O)[C@@H](NC(=O)[C@@H](NC(=O)[C@@H](NC(=O)[C@H](CCCCN)NC(=O)[C@H](C)NC(=O)[C@@H](N)[C@@H](C)O)C(C)C)C(C)C)C(C)C)C(=O)N[C@@H](CO)C(=O)N[C@@H](Cc1ccccc1)C(=O)N[C@@H](CO)C(=O)N[C@@H](Cc1ccc(O)cc1)C(=O)N[C@H](C(=O)N[C@H](C(=O)N1CCC[C@H]1C(=O)N[C@@H](CCCCN)C(=O)N[C@@H](CCCCN)C(=O)N[C@@H](CCCN=C(N)N)C(=O)N[C@@H](C)C(=O)N[C@@H](CS)C(=O)O)C(C)C)C(C)C [TAKVVVFVSFSYVVPKKRAC] | – | – | – | – | – | – | – | – | MIC [6]: ≥ 115 µM; MIC [7]: > 115 µM
CC[C@H](C)[C@H](NC(=O)[C@H](CCCN=C(N)N)NC(=O)[C@H](CCCN=C(N)N)NC(=O)[C@H](Cc1ccccc1)NC(=O)[C@H](Cc1ccccc1)NC(=O)CN)C(=O)N[C@@H](CCCCN)C(=O)N[C@H](C(=O)N[C@@H](Cc1ccccc1)C(=O)N[C@@H](Cc1ccccc1)C(N)=O)[C@@H](C)O [GFFRRIKTFF] | 16 (≈ 21.1 µg/mL) | 16 (≈ 21.1 µg/mL) | 32 (≈ 42.2 µg/mL) | 32 (≈ 42.2 µg/mL) | 8 (≈ 10.5 µg/mL) | 64 (≈ 84.3 µg/mL) | 64 (≈ 84.3 µg/mL) | 64 (≈ 84.3 µg/mL) | –
CC(C)C[C@H](NC(=O)CN)C(=O)N[C@@H](Cc1c[nH]c2ccccc12)C(=O)N[C@@H](CCCCN)C(=O)N[C@@H](CCCN=C(N)N)C(=O)N[C@@H](Cc1c[nH]c2ccccc12)C(=O)N[C@@H](CCCCN)C(=O)N[C@@H](CCCCN)C(=O)N[C@@H](Cc1ccccc1)C(=O)N[C@@H](Cc1c[nH]c2ccccc12)C(N)=O [GLWKRWKKFW] | 8 (≈ 11.5 µg/mL) | 8 (≈ 11.5 µg/mL) | 8 (≈ 11.5 µg/mL) | 8 (≈ 11.5 µg/mL) | 4 (≈ 5.74 µg/mL) | 32 (≈ 45.9 µg/mL) | 16 (≈ 22.9 µg/mL) | 16 (≈ 22.9 µg/mL) | –
CC[C@H](C)[C@H](NC(=O)[C@H](CO)NC(=O)[C@H](CS)NC(=O)[C@H](Cc1ccc(O)cc1)NC(=O)[C@@H](NC(=O)[C@H](C)NC(=O)[C@@H]1CCCN1C(=O)[C@H](Cc1ccccc1)NC(=O)[C@@H](NC(=O)[C@H](CCCCN)NC(=O)[C@H](CO)NC(=O)[C@H](C)NC(=O)[C@@H](NC(=O)[C@H](CCCN=C(N)N)NC(=O)CNC(=O)[C@H](CC(C)C)NC(=O)[C@H](C)NC(=O)[C@@H](N)CO)C(C)C)C(C)C)C(C)C)C(=O)N[C@H](C(=O)N[C@@H](CCCCN)C(=O)O)[C@@H](C)O [SALGRVASKVFPAVYCSITK] | – | – | – | – | – | – | – | – | MIC [6]: ≥ 122 µM; MIC [7]: > 122 µM
CC[C@H](C)[C@H](NC(=O)[C@H](CCCN=C(N)N)NC(=O)[C@H](CCCCN)NC(=O)[C@H](Cc1c[nH]c2ccccc12)NC(=O)[C@H](Cc1c[nH]c2ccccc12)NC(=O)CN)C(=O)N[C@@H](CCCCN)C(=O)N[C@H](C(=O)N[C@@H](Cc1c[nH]c2ccccc12)C(=O)N[C@@H](Cc1c[nH]c2ccccc12)C(N)=O)[C@@H](C)O [GWWKRIKTWW] | 4 (≈ 5.78 µg/mL) | 8 (≈ 11.6 µg/mL) | 8 (≈ 11.6 µg/mL) | 8 (≈ 11.6 µg/mL) | 4 (≈ 5.78 µg/mL) | 16 (≈ 23.1 µg/mL) | 8 (≈ 11.6 µg/mL) | 8 (≈ 11.6 µg/mL) | –
CC[C@H](C)[C@H](NC(=O)[C@H](CCCCN)NC(=O)[C@H](CCCCN)NC(=O)[C@H](C)NC(=O)[C@@H](NC(=O)[C@H](C)NC(=O)[C@H](CC(C)C)NC(=O)[C@H](CC(C)C)NC(=O)[C@H](C)NC(=O)[C@H](CCCCN)NC(=O)[C@H](CC(C)C)NC(=O)[C@H](CC(N)=O)NC(=O)[C@H](C)N)C(C)C)C(=O)N[C@@H](CC(C)C)C(N)=O [ANLKALLAVAKKIL] | 32 (≈ 46.9 µg/mL) | 4 (≈ 5.86 µg/mL) | 16 (≈ 23.4 µg/mL) | 4 (≈ 5.86 µg/mL) | – | – | – | – | MIC [4]: 16 µM (≈ 23.4 µg/mL)
CC[C@H](C)[C@H](NC(=O)[C@@H](NC(=O)[C@@H]1CCCN1C(=O)[C@@H](NC(=O)[C@@H]1CCCN1C(=O)[C@H](CCCCN)NC(=O)[C@H](CCCCN)NC(=O)[C@H](CO)NC(=O)CN)C(C)C)[C@@H](C)CC)C(=O)N[C@@H](Cc1ccc(O)cc1)C(=O)N[C@@H](C)C(=O)N[C@@H](CC(N)=O)C(=O)N[C@@H](CCCN=C(N)N)C(=O)N[C@@H](CCCN=C(N)N)C(=O)N[C@H](C(=O)NCC(=O)N[C@@H](CCCCN)C(=O)N[C@@H](C)C(=O)N[C@@H](CCC(N)=O)C(=O)N[C@@H](CCCN=C(N)N)C(=O)N[C@@H](CCSC)C(=O)O)[C@@H](C)O [GSKKPVPIIYANRRTGKAQRM] | – | – | – | – | – | – | – | – | MIC [14]: 20.8 µM (≈ 49.3 µg/mL)
CC[C@H](C)[C@H](NC(=O)CNC(=O)[C@@H](N)CS)C(=O)N[C@H](C(=O)N[C@@H](C)C(=O)NCC(=O)N[C@H](C(=O)N[C@H](C(=O)N[C@H](C(=O)N[C@@H](CCCCN)C(=O)N[C@H](C(=O)N[C@@H](CCCCN)C(=O)N[C@@H](CCCCN)C(=O)N[C@@H](CS)C(N)=O)[C@@H](C)CC)[C@@H](C)CC)[C@@H](C)CC)[C@@H](C)CC)[C@@H](C)CC [CGIIAGIIIKIKKC] | – | ≥ 32 | – | > 128 | – | – | – | – | –
